In patent publication US8957047B2, “GLA monotherapy for use in cancer treatment” (Immune Design Corp., priority 2013, dated 2015):

Tests used:
B16 melanoma cells = test: Murine B16 melanoma model, subcutaneous inoculation (Example 1); assay type: in vivo, mice; details: 5 μg GLA-SE i.m. on Day 0, Day 9 and Day 14; relative to saline; FIG. 2
Description: The B16 murine melanoma model is an accepted animal model for both solid tumor formation as well as metastasis (see e.g., Curr Protoc Immunol. 2001 May; CHAPTER 20: Unit-20.1. doi:10.1002/0471142735.im2001s39). In this study, mice were inoculated subcutaneously with 3×10^5 B16 cells on Day minus 9 (n=10 per group). Mice were treated with either saline or 5 μg GLA-SE i.m. on Day 0, Day 9 and Day 14.

B16F10 cells [1] = test: B16F10 footpad model, optimal time to begin GLA administration (Example 5); assay type: in vivo, C57BL/6 mice; details: 5 μg GLA-SE/2% SE i.t. starting Day 4 post-tumor injection, every 3-4 days; FIG. 7A
Description: To determine the optimal time to begin GLA administration, female C57BL/6 mice (n=5 per group) were inoculated with 5×10^5 B16F10 cells, subcutaneously in the right footpad on Day 0. Mice were given intratumoral (i.t.) administrations of 5 μg GLA-SE/2% SE (or 2% SE vehicle control) on Day 4, Day 9, or Day 14, and every 3-4 days thereafter until the end of study.

B16F10 cells [2] = test: B16F10 footpad model, GLA plus checkpoint inhibitor (Example 5); assay type: in vivo, C57B1/6 mice; details: GLA alone: 5 μg GLA-SE/2% SE i.t. from Day 4 every 3-4 days; FIG. 7B
Description: Mice were given i.t. administrations of 5 μg GLA-SE/2% SE (or 2% SE vehicle control) plus intraperitoneal (i.p.) administrations of a CPI [anti-PDL1, anti-PD1, anti-CTLA4 (clone 9H10), anti-CTLA4 (clone 9D9), or LTF2 control antibody] at 100 μg starting on Day 4 and every 3-4 days thereafter until the end of study.

B16F10 cells [3] = test: B16F10 footpad model, GLA i.t. plus anti-CD40 i.p. (Example 6); assay type: in vivo, C57B1/6 mice; details: GLA alone: 5 μg GLA-SE/2% SE i.t. from Day 4 every 3-4 days; FIG. 8A
Description: Mice were given i.t. administrations of 5 μg GLA-SE/2% SE (or 2% SE vehicle control) plus i.p. administrations of anti-CD40 (or 2A3 control antibody) at 100 μg, starting on Day 4 and every 3-4 days thereafter until the end of study (FIG. 8A).

B16F10 cells [4] = test: B16F10 model, GLA i.t. plus anti-CD40 i.t., suboptimal doses (Example 6); assay type: in vivo, mice; details: GLA alone: 2 μg GLA-SE/2% SE i.t. on Day 8 and 15 post-tumor injection; FIG. 8B
Description: To determine whether anti-CD40 exerted anti-tumor effects in the tumor microenvironment, tumor-bearing mice were given i.t. administrations of 2 μg GLA-SE/2% SE (or 2% SE vehicle control) on Day 8 and 15 post-tumor injection and i.t. administrations of 50 μg anti-CD40 (or 2A3 control antibody) on Day 5 and 12 post-tumor injection (FIG. 8B). Suboptimal doses for GLA and anti-CD40 were given to avoid masking of a possible synergistic effect of the combination.

In the case of `CCCCCCCCCCCCCC(=O)O[C@H](CCCCCCCCCCC)CC(=O)O[C@@H]1[C@@H](NC(=O)C[C@H](CCCCCCCCCCC)OC(=O)CCCCCCCCCCCCC)[C@H](OC[C@H]2O[C@H](O)[C@H](NC(=O)C[C@H](O)CCCCCCCCCCC)[C@@H](OC(=O)C[C@H](O)CCCCCCCCCCC)[C@@H]2O)O[C@H](CO)[C@H]1OP(=O)(O)O` [GLA, glucopyranosyl lipid A], the percent survival (B16 melanoma cells) is reported as “improved survival rate”, the B16F10 tumor growth (B16F10 cells [1]) is reported as “delayed B16F10 tumor growth” and the B16F10 tumor growth (B16F10 cells [2]) is reported as “delayed B16F10 tumor growth”. The B16F10 tumor growth (B16F10 cells [3]) was “delayed B16F10 tumor growth” and the tumor growth (B16F10 cells [4]) was “delayed tumor growth”.
